Patent US20150119352A1, “DINUCELOSIDE POLYPHOSPHATES FOR THE TREATMENT OF PAIN” (GlobalAcorn Ltd., priority 2012, published 2015)
“Also recorded” adds a separate entry of the source.

Experiments:
[1] = target: T1, rat homomeric P2X7 receptors (Rattus norvegicus, UniProt Q64663); assay: Whole-cell patch clamp, rat homomeric P2X7 receptors; assay type: cell-based; settings: 1 μM; ATP
T1 construct: expressed in transfected cells
T1 sequence (Q64663 1-595): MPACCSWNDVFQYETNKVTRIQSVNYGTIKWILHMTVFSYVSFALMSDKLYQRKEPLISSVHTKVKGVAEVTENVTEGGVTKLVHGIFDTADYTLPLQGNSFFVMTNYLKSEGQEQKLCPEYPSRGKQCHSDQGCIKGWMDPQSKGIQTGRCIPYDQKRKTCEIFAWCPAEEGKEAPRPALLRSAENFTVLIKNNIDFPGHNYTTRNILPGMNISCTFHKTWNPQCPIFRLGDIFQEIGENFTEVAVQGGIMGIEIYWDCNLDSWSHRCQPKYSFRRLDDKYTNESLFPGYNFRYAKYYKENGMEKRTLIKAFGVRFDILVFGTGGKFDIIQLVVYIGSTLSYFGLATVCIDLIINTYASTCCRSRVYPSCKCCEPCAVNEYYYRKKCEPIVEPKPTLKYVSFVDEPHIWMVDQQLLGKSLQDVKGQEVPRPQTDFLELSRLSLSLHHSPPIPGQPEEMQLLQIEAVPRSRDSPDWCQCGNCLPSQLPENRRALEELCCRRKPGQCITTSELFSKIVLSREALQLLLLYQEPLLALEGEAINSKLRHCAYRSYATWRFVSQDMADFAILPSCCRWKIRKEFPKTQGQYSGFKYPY
Protocol: FIG. 4. […] A. Example traces of responses induced by 10 μM ATP applied for 2 s every 2 min to HEK cells expressing rat homomeric P2X2 receptors in the presence and absence of 1 μM AppNHppA. B. Comparison of currents induced by the full agonist of P2X2 receptors, ATP, in the presence of 1 μM AppNHppA (right) and absence (left). C. The time course of the current in the presence and absence of 1 μM AppNHppA. D. Comparison of currents induced by the full agonist of rat homomeric P2X4 and P2X7 receptors, ATP, in the presence of 1 μM AppNHppA (right) and absence (left). Experiments were performed as in FIG. 2.
(§1) Trigeminal, nodose, DRG neurons or HEK cells were recorded in the whole-cell configuration while being continuously superfused (at 2 mL/min) with control solution containing (in mM): 152 NaCl, 5 KCl, 1 MgCl2, 2 CaCl2, 10 glucose, and 10 HEPES; pH was adjusted to 7.4 with NaOH and osmolarity was adjusted to 320 mOsM with glucose. […] Responses to selective P2X3 receptor agonist α,β-methylene-ATP (α,β-meATP; resistant to ectoATPase hydrolysis, Sigma-Aldrich) were measured using an EPC-9 amplifier and HEKA Patch Master software (HEKA Electronik, Germany). Cells were voltage-clamped at −70 mV. In most cells, series resistance was compensated by 80%. […]

[2] = target: T2, native P2X3 receptors, dorsal root ganglia (DRG) neurons (Rattus norvegicus, UniProt P49654); assay: α,β-meATP-induced currents in cultured dorsal root ganglia neurons; assay type: cell-based; settings: DRG neuron, read-out: inhibition (suppression) of the peak current
T2 construct: Modulation of Native P2X3 Receptors in Rat Cultured Sensory Neurons; endogenous in cells; host or cells: primary cultured rat trigeminal ganglion and dorsal root ganglion neurons
T2 sequence (P49654 1-397): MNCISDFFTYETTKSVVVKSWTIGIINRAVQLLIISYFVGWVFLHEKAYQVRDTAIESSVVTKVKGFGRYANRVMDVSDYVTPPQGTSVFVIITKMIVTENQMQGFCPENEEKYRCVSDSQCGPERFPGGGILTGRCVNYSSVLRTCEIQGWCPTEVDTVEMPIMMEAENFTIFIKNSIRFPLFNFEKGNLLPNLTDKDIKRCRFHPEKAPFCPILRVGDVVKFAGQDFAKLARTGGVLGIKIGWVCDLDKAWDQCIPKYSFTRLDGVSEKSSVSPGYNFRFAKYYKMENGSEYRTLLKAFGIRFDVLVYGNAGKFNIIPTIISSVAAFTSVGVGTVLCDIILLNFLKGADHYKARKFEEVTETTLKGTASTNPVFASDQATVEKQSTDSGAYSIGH
Protocol: Rat trigeminal (TG), nodose (NG) or dorsal root ganglion (DRG) neurons in culture were prepared as described previously (Sokolova et al., 2001; Simonetti et al., 2006). Neurons were plated on poly-L-lysine (0.2 mg/mL)-coated Petri dishes and cultured for 1 to 2 days under an atmosphere containing 5% CO2. Cells were used within 2 days of plating when they lacked processes. HEK293T cells were prepared as reported previously (Fabbretti et al., 2004; Sokolova et al., 2004) and transfected with rat full-length P2X3 cDNA subcloned into pIRES2-EGFP (Clontech, Mountain View, Calif., USA).
as §1
The peak amplitudes of the responses were measured using HEKA Patch Master software. […]

Nc1ncnc2c1ncn2[C@@H]1O[C@H](COP(=O)(O)OP(=O)(O)NP(=O)(O)OP(=O)(O)OC[C@H]2O[C@@H](n3cnc4c(N)ncnc43)C(O)C2O)C(O)C1O (stereo in doubt) [AppNHppA]
effect on P2X7 receptor-mediated currents [1]: not observed to produce any effects; also recorded: non-inhibitory effect | inhibition at 1 µM [2]: 79.2 ± 5.6%
